Reference: paper PMC12044326 (Clinical Pharmacology in Drug Development, 2025)
Like-named read-outs stand apart in the source and are kept apart here.

Tests used:
[1] = test system: cholesterol 24‐hydroxylase (CH24H); conditions: 100, 200, and 300 mg BID, cited from earlier work
CYP3A4 = experiment: PBPK elimination inputs (retrograde model, fm); design: species or system human; conditions: PBPK input
UGT1A9 [2] = molecular target: T1, UGT1A9 (Homo sapiens, UniProt O60656); design: with alamethicin-pretreated HLMs (0.5 mg/mL); tissue Sekisui-XenoTech; host or cells: pooled human liver microsomes (200 donors); conditions: predicted by combining in vitro phenotyping and human ADME data; cited from earlier work
T1 sequence (O60656 26-530): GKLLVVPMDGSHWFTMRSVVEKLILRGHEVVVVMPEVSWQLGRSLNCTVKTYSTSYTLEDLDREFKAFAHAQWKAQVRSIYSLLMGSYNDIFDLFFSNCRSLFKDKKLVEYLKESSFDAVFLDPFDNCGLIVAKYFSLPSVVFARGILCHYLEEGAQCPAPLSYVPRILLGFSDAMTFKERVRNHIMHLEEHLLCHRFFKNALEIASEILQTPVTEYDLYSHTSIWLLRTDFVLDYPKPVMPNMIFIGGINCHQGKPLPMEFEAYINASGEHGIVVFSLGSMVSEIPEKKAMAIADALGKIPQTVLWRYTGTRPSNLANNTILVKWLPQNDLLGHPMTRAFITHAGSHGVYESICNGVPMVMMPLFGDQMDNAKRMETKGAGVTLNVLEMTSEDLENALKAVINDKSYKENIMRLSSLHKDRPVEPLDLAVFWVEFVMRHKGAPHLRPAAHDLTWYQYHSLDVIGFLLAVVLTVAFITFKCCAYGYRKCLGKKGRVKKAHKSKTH

CYP2B6 = conditions: hepatocytes
Procedure: respectively; XenoTech) were treated once daily for 3 consecutive days and cultured according
to previously described methods.2-4 Each culture well was treated with supplemented modified Chee's medium (0.2 mL) containing 0.1% v/v d imethylsulfoxide (DM SO ; vehicle control),
μmol/L) or 1 of 3 known human CYP enzyme inducers (omeprazole 50 μmol/L, phenobarbital
Cultures were visualized with a
representative well from each treatment group was photographed with a PAXcam 5 (MIS, Inc.
Villa Park, IL, USA) digital camera to document morphological integrity.
β-mercaptoethanol (1:100), and the cell lysates were stored at −80°C. For each hepatocyte preparation, media from 3 wells per treatment group were aspirated, and 250 μL buf f er RLT was added to each well. The cell lysates were mixed by shaking (10 minutes at 800 rpm) and total RNA was isolated with a MagMAX-96 (Ambion/ Thermo Fisher Scientific) for Microarrays Kit using the RNeasy Mini Kit (Qiagen Inc., Germantown, MD, USA). The analysis of RNA integrity was carried out with the RNA 6000 Nano Assay Kit on an Agilent 2100 Bioanalyzer (Agilent Technologies, Inc., Santa Clara, CA, USA). […]
prepared samples were stored at −20°C prior to analysis by quantitative real-time (qRT)- […]

[3] = ref 6 of supplement, cited from earlier work; for AUC0-inf observed / Cmax observed: geometric mean; for tmax observed: median
in vitro = conditions: human, Caco-2
Procedure: Caco-2 cells were obtained from American Type Culture Collection. Prior to the experiments,
the cells were seeded on 55 cm2 bottom culture dishes (Corning). The cells were cultured at
37°C in a humidified CO2 (5%) incubator and routinely passaged about once a week. Caco-2
cultured in the medium at 37°C in a humidified CO2 (5%) incubator for 23 days to prepare cell
The medium was changed 4 days after seeding and then changed every 2 or 3 days
thereafter. Before the experiment, the integrity of the Caco-2 cell monolayer was checked by
measuring the trans-epithelial electrical resistance (TEER) value. The TEER values of cell
In the transport experiments, the medium of top side of the cells (apical side) and basal
side of the cells (basal side) were replaced with the DMSO-HBSS solution, the inhibitor-HBSS
control), or the test solutions (digoxin and mannitol as substrates). The volumes of the replaced
solutions were 300 μL for the apical side and 1 mL for the basal side. The DMSO-HBSS […]
of the solution in each basal side (receiver side) were collected and measured for the
radioactivity using an LSC. […]
collected and measured for the radioactivity using an LSC. […]
side (receiver side) were collected and measured for the radioactivity using an LSC. […]
in each apical side and each basal side (donor side) were collected and measured for the
radioactivity using an LSC.

human hepatocytes = conditions: both, 10 μmol/L
UGT1A9 [4] = molecular target: T1, UGT1A9; design: method as in PMID 38123352; conditions: cited from earlier work
OATP1B1 [5] = molecular target: T2, OATP1B1 (Homo sapiens, UniProt Q9Y6L6)
T2 sequence (Q9Y6L6 1-691): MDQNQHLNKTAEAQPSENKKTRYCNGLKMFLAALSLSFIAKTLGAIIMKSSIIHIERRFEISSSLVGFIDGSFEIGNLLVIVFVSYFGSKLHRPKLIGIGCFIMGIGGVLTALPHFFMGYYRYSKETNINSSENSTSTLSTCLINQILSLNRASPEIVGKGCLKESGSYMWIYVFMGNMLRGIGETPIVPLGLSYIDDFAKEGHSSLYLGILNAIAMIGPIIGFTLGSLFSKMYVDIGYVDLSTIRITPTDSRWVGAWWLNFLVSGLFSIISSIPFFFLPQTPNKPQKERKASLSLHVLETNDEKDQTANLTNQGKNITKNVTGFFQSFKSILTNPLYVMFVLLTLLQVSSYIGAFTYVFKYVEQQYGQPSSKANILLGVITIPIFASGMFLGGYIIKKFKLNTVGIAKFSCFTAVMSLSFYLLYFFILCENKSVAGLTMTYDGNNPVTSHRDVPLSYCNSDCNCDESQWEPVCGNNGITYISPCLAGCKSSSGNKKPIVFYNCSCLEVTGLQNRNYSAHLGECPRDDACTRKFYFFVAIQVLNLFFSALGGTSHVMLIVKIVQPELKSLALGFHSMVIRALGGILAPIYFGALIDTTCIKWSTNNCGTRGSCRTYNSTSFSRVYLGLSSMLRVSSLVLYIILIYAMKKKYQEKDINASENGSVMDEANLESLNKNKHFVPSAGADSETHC

[6] = cited from earlier work
OATP1B1 [7] = molecular target: T2, OATP1B1; remark: listed apart in the source
CYP2C19 = CYP2C19 (Homo sapiens, UniProt P33261); experiment: Reversible CYP inhibition in human liver microsomes
Chain of CYP2C19 (P33261 whole entry): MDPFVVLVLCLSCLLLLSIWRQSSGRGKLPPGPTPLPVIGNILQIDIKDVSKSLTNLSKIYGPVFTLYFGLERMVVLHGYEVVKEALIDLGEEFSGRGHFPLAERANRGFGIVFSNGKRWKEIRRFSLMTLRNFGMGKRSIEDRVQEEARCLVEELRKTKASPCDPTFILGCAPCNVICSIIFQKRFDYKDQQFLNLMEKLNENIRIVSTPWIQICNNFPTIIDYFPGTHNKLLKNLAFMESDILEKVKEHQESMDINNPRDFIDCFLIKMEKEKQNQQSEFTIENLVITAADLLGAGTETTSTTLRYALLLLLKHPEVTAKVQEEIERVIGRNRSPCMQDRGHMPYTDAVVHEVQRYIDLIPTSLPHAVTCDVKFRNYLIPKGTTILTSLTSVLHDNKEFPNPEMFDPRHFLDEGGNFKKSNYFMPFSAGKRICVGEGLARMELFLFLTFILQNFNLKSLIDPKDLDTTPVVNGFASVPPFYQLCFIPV

[8] = Fig 2C, soticlestat 300 mg alone or with mefenamic acid, n = 14
[9] = 300 mg single oral dose, geometric mean, clinical ADME study, ref 5 of supplement

O=C(c1cccnc1-c1ccncc1)N1CCC(O)(Cc2ccccc2)CC1 [Soticlestat]
24HC reduction ([1]; steady state): ≥ 60% | steady‐state enzyme occupancy [1]: ≥ 65% | fmCYP3A (CYP3A4): 0.1 | fm by UGT1A9 (UGT1A9 [2]): 9.3% | induction of CYP2B6 (CYP2B6): nor did soticlestat induce | AUC0-inf observed ([3]; 15 mg single oral dose): 22.6 ng·h/mL | Cmax observed ([3]; 15 mg single oral dose): 33.5 ng/mL | tmax observed ([3]; 15 mg single oral dose): 15 min | AUC0-inf observed ([3]; 50 mg single oral dose): 134 ng·h/mL | Cmax observed ([3]; 50 mg single oral dose): 167 ng/mL | tmax observed ([3]; 50 mg single oral dose): 15 min | AUC0-inf observed ([3]; 200 mg single oral dose): 591 ng·h/mL | Cmax observed ([3]; 200 mg single oral dose): 527 ng/mL | tmax observed ([3]; 200 mg single oral dose): 15 min | AUC0-inf observed ([3]; 600 mg single oral dose): 4937 ng·h/mL | Cmax observed ([3]; 600 mg single oral dose): 3847 ng/mL | tmax observed ([3]; 600 mg single oral dose): 30 min | AUC0-inf observed ([3]; 900 mg single oral dose): 7454 ng·h/mL | Cmax observed ([3]; 900 mg single oral dose): 4814 ng/mL | AUC0-inf observed ([3]; 1350 mg single oral dose): 12,699 h.ng/mL | Cmax observed ([3]; 1350 mg single oral dose): 7672 ng/mL | tmax observed ([3]; 1350 mg single oral dose): 48 min | Papp (in vitro): 23.4 ×10⁻⁶ cm/s | metabolized by glucuronidation (human hepatocytes): ~66% | oxidation via CYP3A (human hepatocytes): ~33% | AUC0-inf observed (UGT1A9 [4]; [8]): 1526 ng·h/mL | Cmax observed (UGT1A9 [4]; [8]): 1414 ng/mL | effect on soticlestat exposure (UGT1A9 [4]; with mefenamic acid): did not affect soticlestat exposure | substrate for OATP1B1 (OATP1B1 [5]): not a substrate | AUC0-inf observed [6, 9]: 1294 ng·h/mL | Cmax observed [6, 9]: 995 ng/mL | tmax observed ([6]; 300 mg single oral dose, median, clinical ADME study, ref 5 of supplement): 31.8 min | CLIV (mean IV clearance) ([6]; IV microdose [14C] soticlestat 50 µg with oral 300 mg): 28.7 L/h | CYP contribution to clearance ([6]; human radiolabeled ADME study): 9.5% | cleared by UGT metabolism ([6]; human radiolabeled ADME study): 90.5% | CLR (mean renal clearance) ([6]; single oral dose [14C] soticlestat 300 mg, healthy volunteers): 0.22 L/h | inhibition of OATP1B1 (OATP1B1 [7]): did not demonstrate clinically relevant inhibition | Ki (CYP2C19): 9.5 µM | fumic (CYP2C19; human): 0.88 | inhibition of CYP2C19 (CYP2C19; microsomes): low double‐digit micromolar values
